Tested on: TLR9
Assay: TLR9-induced IFNalpha in human PBMC (CpG2216, AlphaLISA)
Type: cell-based
Settings: read-out: TLR9-ligand induced IFNα in human PBMC IC50
Procedure: 2.4 Determination of TLR9-Induced IFNalpha in Human Peripheral Blood Mononuclear Cells (PBMCs) and Isolated Plasmacytoid Dendritic Cells (pDCs)
Human blood (ca. 75 ml) was collected in 10 S-Monovette tubes containing Heparin (S-Monovette 7.5 mL NH Heparin 16 IU/mL blood; Starstedt). Leucosep™ tubes (30 mL #227290; Greiner Bio-one) were prepared by addition of 15 ml lymphocyte separation medium LSM1077™ per tube (#J15-004; PAA Laboratories) and centrifugation for 30 sec at 1000 g. Some 25 ml blood was transferred to Leucosep™ tubes following dilution with equal parts of PBS (without Ca2+/Mg2+; #14190-094). […] The PBMC were counted using a Countess® Automated cell counter (sample was pre-diluted 1:10 in Media, prior to the addition of equal volume (10 μl) of Trypan Blue). […]
Compounds were pre-diluted in 100% v/v DMSO (#41640-100 mL; Sigma-Aldrich), followed by transfer in Media (to achieve a final DMSO concentration of 0.25%). […] Plates were briefly centrifuged (200×g for 2 min at 22° C.) and supernatant samples (30 μl) removed for quantification of IFNα levels.
For quantification of IFNalpha the human interferon AlphaLISA Kit (#AL264F) from PerkinElmer was used. […] Data were collected for analysis and quantification of IFNα levels.
Data were analysed using Excel XL fit 4.0 (Microsoft) with XLfit add-in (IDBS; version 4.3.2). […]

`CCC(=O)N1CC[C@H](Nc2ncnc3c2CN(c2cnc(OC)c(C(F)(F)F)c2)CC3)C1` [Example 67, 1-{(S)-3-[6-(6-Methoxy-5-trifluoromethyl-pyridin-3-yl)-5,6,7,8-tetrahydro-pyrido[4,3-d]pyrimidin-4-ylamino]-pyrrolidin-1-yl}-propan-1-one] gave an IC50 of 109 nM.
